{
  "source": "ChEMBL document CHEMBL5046276",
  "about": "(J Med Chem, 2022)",
  "key": {"[1]": {"assay": "Selectivity index, ratio of IC50 for cytotoxicity against HEK293T cells to IC50 for antimalarial activity against asexual blood stage wild-type Plasmodium falciparum 3D7", "assay_type": "toxicity, cell-based", "conditions": "human, read-out: Ratio IC50"}, "[2]": {"assay": "Metabolic stability in mouse liver microsomes assessed as half life at […] incubated for 45 mins in presence of NADPH by LC/MS analysis", "assay_type": "ADME, Microsome", "conditions": "liver microsomes"}, "[3]": {"assay": "Cytotoxicity against HEK293T cells incubated for 72 hrs by CCK-8 assay", "conditions": "human"}, "[4]": {"biological_target": "T1, Protein deacetylase HDAC6 (Homo sapiens) (UniProt Q9UBN7)", "T1 sequence (whole entry)": "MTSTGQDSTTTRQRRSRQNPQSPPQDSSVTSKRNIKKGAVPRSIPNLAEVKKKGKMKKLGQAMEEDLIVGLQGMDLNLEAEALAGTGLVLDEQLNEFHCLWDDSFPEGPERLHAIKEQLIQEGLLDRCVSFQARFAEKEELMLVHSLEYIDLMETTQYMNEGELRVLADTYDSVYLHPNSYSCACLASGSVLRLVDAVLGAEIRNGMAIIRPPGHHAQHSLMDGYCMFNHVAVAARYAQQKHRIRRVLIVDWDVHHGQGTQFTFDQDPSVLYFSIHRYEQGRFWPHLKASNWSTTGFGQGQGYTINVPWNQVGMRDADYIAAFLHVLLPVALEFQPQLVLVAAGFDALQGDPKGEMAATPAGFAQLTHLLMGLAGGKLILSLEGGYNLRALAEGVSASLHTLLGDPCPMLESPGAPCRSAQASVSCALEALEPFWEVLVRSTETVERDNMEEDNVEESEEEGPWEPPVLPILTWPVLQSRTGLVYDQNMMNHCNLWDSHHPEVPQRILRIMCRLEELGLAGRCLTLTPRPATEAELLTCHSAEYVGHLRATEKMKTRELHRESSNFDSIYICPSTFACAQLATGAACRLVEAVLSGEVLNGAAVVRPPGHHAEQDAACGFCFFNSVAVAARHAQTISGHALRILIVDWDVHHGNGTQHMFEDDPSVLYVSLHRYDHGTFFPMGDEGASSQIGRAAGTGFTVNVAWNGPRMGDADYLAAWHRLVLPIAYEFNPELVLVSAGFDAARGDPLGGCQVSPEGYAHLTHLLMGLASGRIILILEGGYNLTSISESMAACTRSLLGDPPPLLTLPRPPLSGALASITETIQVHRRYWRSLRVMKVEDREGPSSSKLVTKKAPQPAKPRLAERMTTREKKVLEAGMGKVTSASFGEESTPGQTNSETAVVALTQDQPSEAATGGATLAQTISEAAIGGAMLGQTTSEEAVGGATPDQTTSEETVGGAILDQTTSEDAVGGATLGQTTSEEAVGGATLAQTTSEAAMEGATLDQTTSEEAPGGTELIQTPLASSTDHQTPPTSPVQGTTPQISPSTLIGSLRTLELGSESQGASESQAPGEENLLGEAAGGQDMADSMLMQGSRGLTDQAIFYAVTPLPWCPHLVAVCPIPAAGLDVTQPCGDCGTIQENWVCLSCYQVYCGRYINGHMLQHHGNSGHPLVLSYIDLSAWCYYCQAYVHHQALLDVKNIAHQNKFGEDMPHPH", "assay": "Potency index, ratio of test compound IC50 to Quisinostat IC50 for inhibition of recombinant human full length N-terminal GST tagged HDAC6 (1 to 1215 residues) expressed in baculovirus-infected Sf9 cells using Ac-peptide as substrate incubated for 4 hrs"}, "[5]": {"assay": "Apparent clearance in BALB/c mouse at 5 mg/kg, ip measured after upto 24 hrs by LC-MS/MS analysis", "assay_type": "ADME, organism-based", "conditions": "in vivo, read-out: CLz/F (converted)"}, "[6]": {"biological_target": "Histone deacetylase 2 (Homo sapiens, UniProt Q92769)", "sequence (Q92769 whole entry)": "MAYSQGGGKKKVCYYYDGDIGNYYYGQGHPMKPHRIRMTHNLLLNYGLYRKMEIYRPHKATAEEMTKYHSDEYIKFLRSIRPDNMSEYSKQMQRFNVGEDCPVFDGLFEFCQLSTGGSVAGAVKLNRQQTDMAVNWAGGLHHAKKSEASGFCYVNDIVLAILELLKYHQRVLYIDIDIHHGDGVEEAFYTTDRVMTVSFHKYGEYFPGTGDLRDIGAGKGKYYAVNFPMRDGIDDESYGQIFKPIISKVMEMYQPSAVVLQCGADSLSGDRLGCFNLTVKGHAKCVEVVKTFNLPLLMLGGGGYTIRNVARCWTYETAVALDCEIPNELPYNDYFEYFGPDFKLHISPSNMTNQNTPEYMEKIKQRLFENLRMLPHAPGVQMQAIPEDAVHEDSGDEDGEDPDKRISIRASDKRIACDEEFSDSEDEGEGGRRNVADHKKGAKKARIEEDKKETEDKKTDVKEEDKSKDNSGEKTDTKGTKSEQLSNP", "assay": "biochemical", "assay_type": "cell-based, Sf9", "description": "Inhibition of recombinant human full length C-terminal His tagged HDAC2 (1 to 488 residues) expressed in baculovirus-infected Sf9 insect cells using Ac-peptide as substrate incubated for 4 hrs"}, "[7]": {"biological_target": "T2, Protein deacetylase HDAC6 (Homo sapiens, UniProt Q9UBN7)", "T2 sequence (Q9UBN7 whole entry)": "T1 sequence (whole entry)", "assay": "Inhibition of recombinant human full length N-terminal GST tagged HDAC6 (1 to 1215 residues) expressed in baculovirus-infected Sf9 cells using Ac-peptide as substrate incubated for 4 hrs"}, "[8]": {"test_system": "Plasmodium falciparum", "assay": "In vivo inhibition of C-terminal glmS fused HDAC2 in Plasmodium falcipuram 3D7 assessed as inhibition of parasite growth incubated for 4 hrs followed by compound washout and replacement with fresh medium with compounds measured after 68 hrs by SYBR Green I staining based fluorescence analysis", "assay_type": "functional, organism-based"}, "[9]": {"biological_target": "Histone deacetylase 1 (Homo sapiens, UniProt Q13547)", "sequence (Q13547 whole entry, the tested form may be a part)": "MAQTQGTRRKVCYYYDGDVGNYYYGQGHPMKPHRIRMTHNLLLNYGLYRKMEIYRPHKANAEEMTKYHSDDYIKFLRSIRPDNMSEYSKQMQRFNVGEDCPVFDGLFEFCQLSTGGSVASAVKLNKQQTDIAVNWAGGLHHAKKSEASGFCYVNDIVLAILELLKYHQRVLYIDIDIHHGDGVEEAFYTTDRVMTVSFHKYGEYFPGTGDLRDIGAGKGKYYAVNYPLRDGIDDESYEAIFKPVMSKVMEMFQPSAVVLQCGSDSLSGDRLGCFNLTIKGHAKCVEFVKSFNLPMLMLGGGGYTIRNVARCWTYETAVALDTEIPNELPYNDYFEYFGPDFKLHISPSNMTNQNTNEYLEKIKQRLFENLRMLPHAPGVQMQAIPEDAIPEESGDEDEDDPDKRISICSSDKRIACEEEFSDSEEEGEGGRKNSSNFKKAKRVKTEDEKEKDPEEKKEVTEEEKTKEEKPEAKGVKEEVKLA", "assay": "Potency index, ratio of test compound IC50 to Quisinostat IC50 for inhibition of recombinant human full length C-terminal His/FLAG tagged HDAC1 (1 to 482 residues) expressed in baculovirus-infected Sf9 cells using Ac-peptide as substrate incubated for 4 hrs"}},
  "note": "Calls of active or inactive are those of the source. The rule behind the calls is not given here.",
  "data": [
    {"smiles": "Cl.Cn1cc(CN2CC3(CCN(c4ncc(C(=O)NO)cn4)C3)C2)c2ccc(C#N)cc21", "values": [
      {"measurement": "selectivity ratio", "setting": "[1]", "value": 960},
      {"measurement": "half-life", "setting": "[2]", "value": 1.34, "unit": "h"},
      {"measurement": "IC50 at 72 h", "setting": "[3]", "value": 1210, "unit": "nM"},
      {"measurement": "Ratio IC50", "setting": "[4]", "value": 3},
      {"measurement": "CL/F", "setting": "[5]", "value": 130, "unit": "mL/min/kg"},
      {"measurement": "IC50", "setting": "[6]", "value": 5.1, "unit": "nM"},
      {"measurement": "IC50", "setting": "[7]", "value": 85.5, "unit": "nM"},
      {"measurement": "inhibition", "setting": "[8]", "value": "Active"},
      {"measurement": "Ratio IC50", "setting": "[9]", "value": 3}
    ]}
  ]
}
